Experimental data from patent US4305940A, “Benzamides with local anaesthetic and antiarrhythmic activity, salts, and method of preparation thereof and pharmaceutical compositions therefrom” (B.B.R. Boehringer Biochemia Robin S.p.A., priority 1979, dated 1981).
Where a name gives a salt, the structure may show the parent alone.

Experiments:
in vivo = conditions: rat, in vivo, ip; 5 days; hydrochloride salts; range in parentheses; read-out: DL50 i.p.
Description: (§1) The behavior of the animals has then been followed for a period of five days. The DL50 has been determined according to the method of I. T. Litchfield and F. Wilcoxon, (J. Pharmacol. Exper. Ther., 96, 99, 1949). The compound numbers in Table II correspond to the numbers in Table I.

Swiss rats = experiment: in vivo; conditions: lidocaine = 1
Description: as §1

corneal reflux = experiment: Surface anaesthesia (corneal reflux, conjunctival sac); conditions: for Surface anaesthesia DL50/CE50: analogous to therapeutic index, DL50 i.p.; for Surface anaesthesia CE50: concentration in percent achieving 50% of total responses, pH 7 saline, hydrochloride salts; for Surface anaesthesia activity with respect to lidocaine: lidocaine = 1
Procedure: (§2) The data reported hereinbelow relate in every instance to the hydrochloride salts of the individual compounds.
The surface anaesthesia has been determined in rabbits according to the method of M. R. A. Change and H. Lobstein (J. Pharmacol. Exper. Ther., 82, 203, 1944). The compounds dissolved in physiological saline solution of pH 7 were injected into the conjunctival sac and the corneal reflux was induced with the brush of Frey six times at intervals of five minutes for a total period of 40 minutes.

[1] = tested on: response to skin puncture; experiment: Anaesthesia by infiltration (subcutaneous, back puncture); format: in vivo, guinea pigs; conditions: for Infiltration anaesthesia DL50/CE50: analogous to therapeutic index, DL50 i.p.; for Infiltration anaesthesia CE50: concentration in percent achieving 50% of total responses, hydrochloride salts; for Infiltration anaesthesia DL50/CE50 relative to lidocaine / Infiltration anaesthesia activity with respect to lidocaine: lidocaine = 1
Procedure: The anaesthesia by infiltration has been determined in guinea pigs according to the method of E. Bulbring and I. Wajda, (Journal of Pharmacol. Exper. Ther. 85, 78, 1945). In each experiment, four doses of the substance in 0.25 cc of physiological saline solution is injected subcutaneously on the back after removal of hair. After five minutes, each animal is punctured six times at intervals of […].
The test was repeated every five minutes for a period of 30 minutes. The extent of anaesthesia by infiltration was measured quantitatively by determining the sum of the instances in which the animal remained immobile during the thirty minute period on 36 possible blinks.

[2] = tested on: reflux of contraction of the lower limbs (lumbar plexus); experiment: Anaesthesia by conduction (lumbar plexus); format: in vivo, frogs; conditions: for Conduction anaesthesia DL50/t' / Conduction anaesthesia 1/t'max. (c = 1%) with respect to lidocaine: c = 1%; for Conduction anaesthesia DL50/t': DL50 i.p.; for Conduction anaesthesia 1/t'max. (c = 1%) with respect to lidocaine / Conduction anaesthesia DL50/t' relative to lidocaine: lidocaine = 1
Description: Anaesthesia by conduction has been determined on frogs according to the method of E. Bulbring and I. Wajda (Journal Pharmacol. Exper. Ther., 85, 78, 1945). The compounds dissolved in physiological saline solution are introduced into the cavity obtained by a transversal incision in the abdomen and separating the viscera in order to expose the lumbar plexus. The period of time necessary to eliminate the reflux of contraction of the lower limbs stimulated by immersion of both posterior legs into hydrochloric acid of increasing concentration between 0.05-0.1-0.2 N for a period not in excess of ten seconds, at intervals of one minute is determined. The extent of anaesthesia of conduction has been determined by measuring the period of time required for each compound in three different concentrations, 0.2%-0.5%-1.0% in order to abolish the reflex of contraction with the concentration of hydrochloric acid indicated hereinabove.

[3] = tested on: aconitine-induced ventricular arrhythmia; experiment: Anti-arrhythmic activity, aconitine infusion; format: in vivo, Wistar rats; conditions: 3 min before aconitine 10 mcg/kg/min
Procedure: as §2
This determination has been made in Wistar rats, anaesthetized with ethylurethane, (1 g/kg i.p.), according to the method of B. Vargaftig and J. L. Coigner (European Journal Pharmacology, 6, 49, 1969). The compounds dissolved in physiological saline solution, are injected intravenously three minutes prior to the infusion of aconitine, (10 mcg/kg/min.). The extent of anti-arrhythmic activity is determined quantitatively by determining the amount of aconitine necessary to induce ventricular arrhythmia.

Compound | LD50 at 120 h (in vivo) [mg/kg] | DL50 i.p. relative to lidocaine (Swiss rats) | Surface anaesthesia DL50/CE50 (corneal reflux) | Surface anaesthesia CE50 (corneal reflux) [%] | Surface anaesthesia activity with respect to lidocaine (corneal reflux) | Infiltration anaesthesia DL50/CE50 [1] | Infiltration anaesthesia CE50 [1] [%] | Infiltration anaesthesia DL50/CE50 relative to lidocaine [1] | Infiltration anaesthesia activity with respect to lidocaine [1] | Conduction anaesthesia DL50/t' [2] | Conduction anaesthesia 1/t'max. (c = 1%) with respect to lidocaine [2] | Conduction anaesthesia DL50/t' relative to lidocaine [2] | Aconitine i.v. necessary to induce ventricular arrhythmia ([3]; 10.0 mg/kg i.v.) [µg/kg] | Aconitine i.v. necessary to induce ventricular arrhythmia ([3]; 40.0 mg/kg i.v.) [µg/kg] | Aconitine i.v. necessary to induce ventricular arrhythmia ([3]; 12.5 mg/kg i.v.) [µg/kg] | Aconitine i.v. necessary to induce ventricular arrhythmia ([3]; 25.0 mg/kg i.v.) [µg/kg]
Cc1cccc(C)c1NC(=O)c1ccccc1CN1CCCC1 [Compound 4] | 55 | 0.39 | 30 | 1.85 | 1.24 | 162 | 0.34 | 0.86 | 2.20 | 55 | 11.1 | 4.23 | – | – | – | –
Cc1cccc(C)c1NC(=O)c1cccc(CN2CCCCC2)c1 [Compound 8] | 205 | 1.44 | 73 | 2.82 | 0.82 | 569 | 0.36 | 3.01 | 2.08 | 41 | 2.2 | 3.15 | – | – | – | –
Cc1cccc(C)c1NC(=O)c1ccc(CN2CCCC2)cc1 [Compound 6] | 215 | 1.51 | 13 | 16.03 | 0.14 | 48 | 4.50 | 0.25 | 0.16 | 107 | 5.5 | 8.31 | – | – | – | –
C=C[C@H]1C[N@@]2CC[C@H]1C[C@@H]2[C@@H](O)c1ccnc2ccc(OC)cc12 [Quinidine sulfate, reference compound] | – | – | – | – | – | – | – | – | – | – | – | – | 50 ± 3 | 88 ± 11 | – | –
Cc1cccc(C)c1NC(=O)c1ccccc1CN1CCOCC1 [Compound 10] | 230 | 1.62 | 34 | 6.86 | 0.34 | 98 | 2.34 | 0.52 | 0.32 | 21 | 1.0 | 1.61 | – | – | – | –
CCN(CC)CC(=O)Nc1c(C)cccc1C [Lidocaine hydrochloride, reference compound] | – | – | – | – | – | – | – | – | – | – | – | – | – | – | 41 ± 4 | 54 ± 5
Cc1cccc(C)c1NC(=O)c1cccc(CN2CCCC2)c1 [Compound 5] | 225 | 1.58 | 9 | 24.12 | 0.09 | 28 | 8.01 | 0.15 | 0.09 | 225 | 11.1 | 17.31 | – | – | – | –
Cc1cccc(C)c1NC(=O)c1ccccc1CN1CCCCC1 [Compound 7] | 87.1 | 0.61 | 290 | 0.30 | 7.66 | 414 | 0.21 | 2.19 | 3.57 | 87 | 11.1 | 6.69 | – | – | – | –
Cc1cccc(C)c1NC(=O)c1ccc(CN2CCOCC2)cc1 [Compound 12] | 230 | 1.62 | 82 | 2.82 | 0.82 | 102 | 2.25 | 0.54 | 0.33 | 57 | 2.7 | 4.46 | – | – | – | –
Cc1cccc(C)c1NC(=O)c1ccc(CN2CCCCC2)cc1 [Compound 9, 2,6-Dimethylanilide of 4-piperidinomethyl-benzoic acid] | 210 | 1.48 | 109 | 1.92 | 1.20 | 750 | 0.28 | 3.97 | 2.67 | 19 | 1.0 | 1.46 | – | – | – | –
Cc1cccc(C)c1NC(=O)c1cccc(CN2CCOCC2)c1 [Compound 11] | 260 | 1.83 | 22 | 11.90 | 0.19 | 273 | 0.95 | 1.44 | 0.79 | 29 | 1.2 | 2.15 | – | – | – | –
